Where two headings read alike, the source gives them in different places.
Key:
Type in all cases: cell-based, Acinetobacter baumannii
[1] = system: panel of MDR clinical isolates of A. baumannii
Procedure: (§1) Checkerboards were performed according to the CLSI parameters used for microbroth dilution MIC5. CA-MHB, iron-depleted CA-MHB (ID-CA-MHB) or RPMI supplemented with 10% FCS medium were used as specified and ID-CA-MHB was prepared according to CLSI guidelines. […] FICI is calculated as follows: […]

A. baumannii HUMC1 = test: broth microdilution checkerboard MIC/synergy; conditions: strain HUMC1
Procedure: as §1

A. baumannii 402608-17 = test: broth microdilution checkerboard MIC/synergy; conditions: for MIC: Acinetobacter baumannii, 40260817, strain 402608-17, read-out: MICs alone
Procedure: as §1

A. baumannii UNT091-1 = test: broth microdilution checkerboard MIC/synergy
Procedure: as §1

A. baumannii IHMA690517 = test: broth microdilution checkerboard MIC/synergy; conditions: strain IHMA690517
Procedure: as §1

A. baumannii UNT238-1 = test: broth microdilution checkerboard MIC/synergy; conditions: strain UNT238-1
Procedure: as §1

A. baumannii UNT191-1 = test: broth microdilution checkerboard MIC/synergy
Procedure: as §1

A. baumannii IHMA919656 = test: broth microdilution checkerboard MIC/synergy; conditions: strain IHMA919656
Procedure: as §1

A. baumannii 402292-17 = test: broth microdilution checkerboard MIC/synergy; conditions: for MIC: Acinetobacter baumannii, 40229217, strain 402292-17, read-out: MICs alone
Procedure: as §1

A. baumannii IHMA1013816 = test: broth microdilution checkerboard MIC/synergy; conditions: strain IHMA1013816
Procedure: as §1

A. baumannii UNT087-1 = test: broth microdilution checkerboard MIC/synergy
Procedure: as §1

A. baumannii 401046-18 = test: broth microdilution checkerboard MIC/synergy; conditions: for MIC: Acinetobacter baumannii, 40104618, strain 401046-18, read-out: MICs alone
Procedure: as §1

A. baumannii 401255-18 = test: broth microdilution checkerboard MIC/synergy; conditions: for MIC: Acinetobacter baumannii, 40125518, strain 401255-18, read-out: MICs alone
Procedure: as §1

A. baumannii IHMA863866 = test: broth microdilution checkerboard MIC/synergy; conditions: strain IHMA863866
Procedure: as §1

A. baumannii ACC00535 = test: broth microdilution checkerboard MIC/synergy; conditions: strain ACC00535; rifabutin/SPR741 in combination
Procedure: as §1

A. baumannii IHMA867231 = test: broth microdilution checkerboard MIC/synergy; conditions: for MIC: Acinetobacter baumannii, IHMA867231, strain IHMA867231, read-out: MICs alone
Procedure: as §1

A. baumannii UNT239-1 = test: broth microdilution checkerboard MIC/synergy; conditions: strain UNT239-1
Procedure: as §1

[2] = system: A. baumannii LAC-4 strain; test: broth microdilution checkerboard MIC/synergy; conditions: strain LAC-4
Procedure: as §1
The checkerboards were performed in CA-MHB or ID-CA-MHB for cefiderocol.

[3] = antibiotic alone, rifabutin/colistin checkerboard, CA-MHB
[4] = rifabutin alone, rifabutin/SPR741 checkerboard
[5] = rifabutin/SPR741 in combination
[6] = rifabutin/cefiderocol in combination
[7] = rifabutin/colistin in combination, CA-MHB
[8] = antibiotic alone, rifabutin/cefiderocol checkerboard
[9] = rifabutin/cefiderocol in combination, ID-CA-MHB

CO[C@H]1/C=C/O[C@@]2(C)Oc3c(C)c(O)c4c(c3C2=O)C2=NC3(CCN(CC(C)C)CC3)NC2=C(NC(=O)/C(C)=C\C=C\[C@H](C)[C@H](O)[C@@H](C)[C@@H](O)[C@@H](C)[C@H](OC(C)=O)[C@@H]1C)C4=O [Rifabutin, rifabutin]
rifabutin combination MICs ([1]; in combination with SPR741, most of the strains): 0.125 to 2 mg/L | shift in rifabutin MIC ([1]; in combination with colistin, isolates with a mutation in the rpoB gene): ≥ 32 fold | MICs alone (A. baumannii HUMC1; [3]): 4 mg/L | MICs alone (A. baumannii HUMC1; [4]): 4 mg/L | MICs combi / in combination (A. baumannii HUMC1; [5]): 0.25 mg/L | MICs combi (A. baumannii HUMC1; [6]): 4 mg/L | MICs combi (A. baumannii HUMC1; [7]): 0.125 mg/L | MIC (A. baumannii 402608-17; [8]): 128 µg/mL | MIC (A. baumannii 402608-17; [3]): 128 µg/mL | MIC (A. baumannii 402608-17; [4]): > 32 µg/mL | MICs combi / in combination (A. baumannii 402608-17; strain 402608-17, rifabutin/SPR741 in combination): 2 mg/L | MICs combi (A. baumannii 402608-17; strain 402608-17, rifabutin/cefiderocol in combination): 32 mg/L | MICs combi (A. baumannii 402608-17; strain 402608-17, rifabutin/colistin in combination, CA-MHB): 2 mg/L | MIC (A. baumannii UNT091-1; Acinetobacter baumannii, UNT0911, strain UNT091-1, rifabutin alone, rifabutin/SPR741 checkerboard, read-out: MICs alone): 0.25 µg/mL | MICs combi / in combination (A. baumannii UNT091-1; strain UNT091-1, rifabutin/SPR741 in combination): 0.06 mg/L | MICs combi (A. baumannii UNT091-1; strain UNT091-1, rifabutin/cefiderocol in combination): 2 mg/L | MICs combi (A. baumannii UNT091-1; strain UNT091-1, rifabutin/colistin in combination, CA-MHB): <0.03 mg/L | MICs combi / in combination (A. baumannii IHMA690517; [5]): 1 mg/L | MICs combi (A. baumannii IHMA690517; [6]): 4 mg/L | MICs combi (A. baumannii IHMA690517; [7]): 0.06 mg/L | MICs combi / in combination (A. baumannii UNT238-1; [5]): 0.125 mg/L | MICs combi (A. baumannii UNT238-1; [9]): 4 mg/L | MICs combi (A. baumannii UNT238-1; [7]): 2 mg/L | MIC (A. baumannii UNT191-1; Acinetobacter baumannii, UNT1911, strain UNT191-1, antibiotic alone, rifabutin/colistin checkerboard, CA-MHB, read-out: MICs alone): 16 µg/mL | MICs combi / in combination (A. baumannii UNT191-1; strain UNT191-1, rifabutin/SPR741 in combination): 0.5 mg/L | MICs combi (A. baumannii UNT191-1; strain UNT191-1, rifabutin/cefiderocol in combination, ID-CA-MHB): 0.5 mg/L | MICs combi (A. baumannii UNT191-1; strain UNT191-1, rifabutin/colistin in combination, CA-MHB): <0.03 mg/L | MICs combi / in combination (A. baumannii IHMA919656; [5]): 1 mg/L | MICs combi (A. baumannii IHMA919656; [6]): 4 mg/L | MICs combi (A. baumannii IHMA919656; [7]): 0.03 mg/L | MIC (A. baumannii 402292-17; [8]): > 128 µg/mL | MIC (A. baumannii 402292-17; [3]): > 128 µg/mL | MIC (A. baumannii 402292-17; [4]): > 32 µg/mL | MICs combi / in combination (A. baumannii 402292-17; strain 402292-17, rifabutin/SPR741 in combination): 2 mg/L | MICs combi (A. baumannii 402292-17; strain 402292-17, rifabutin/cefiderocol in combination): 128 mg/L | MICs combi (A. baumannii 402292-17; strain 402292-17, rifabutin/colistin in combination, CA-MHB): 4 mg/L | MICs combi / in combination (A. baumannii IHMA1013816; [5]): 2 mg/L | MICs combi (A. baumannii IHMA1013816; [6]): 4 mg/L | MICs combi (A. baumannii IHMA1013816; [7]): 0.125 mg/L | MIC (A. baumannii UNT087-1; Acinetobacter baumannii, UNT0871, strain UNT087-1, antibiotic alone, rifabutin/colistin checkerboard, CA-MHB, read-out: MICs alone): 16 µg/mL | MICs combi / in combination (A. baumannii UNT087-1; strain UNT087-1, rifabutin/SPR741 in combination): 0.25 mg/L | MICs combi (A. baumannii UNT087-1; strain UNT087-1, rifabutin/cefiderocol in combination): 4 mg/L | MICs combi (A. baumannii UNT087-1; strain UNT087-1, rifabutin/colistin in combination, CA-MHB): 0.5 mg/L | MIC (A. baumannii 401046-18; antibiotic alone, rifabutin/cefiderocol checkerboard, ID-CA-MHB): 32 µg/mL | MIC (A. baumannii 401046-18; [3]): 64 µg/mL | MIC (A. baumannii 401046-18; [4]): > 32 µg/mL | MICs combi / in combination (A. baumannii 401046-18; strain 401046-18, rifabutin/SPR741 in combination): 2 mg/L | MICs combi (A. baumannii 401046-18; strain 401046-18, rifabutin/cefiderocol in combination, ID-CA-MHB): 16 mg/L | MICs combi (A. baumannii 401046-18; strain 401046-18, rifabutin/colistin in combination, CA-MHB): 1 mg/L | MIC (A. baumannii 401255-18; [8]): 32 µg/mL | MIC (A. baumannii 401255-18; [3]): 128 µg/mL | MIC (A. baumannii 401255-18; [4]): > 32 µg/mL | MICs combi / in combination (A. baumannii 401255-18; strain 401255-18, rifabutin/SPR741 in combination): 2 mg/L | MICs combi (A. baumannii 401255-18; strain 401255-18, rifabutin/cefiderocol in combination): 16 mg/L | MICs combi (A. baumannii 401255-18; strain 401255-18, rifabutin/colistin in combination, CA-MHB): 2 mg/L | MICs alone (A. baumannii IHMA863866; [3]): 4 mg/L | MICs alone (A. baumannii IHMA863866; [4]): 4 mg/L | MICs combi / in combination (A. baumannii IHMA863866; [5]): 2 mg/L | MICs combi (A. baumannii IHMA863866; [6]): 0.125 mg/L | MICs combi (A. baumannii IHMA863866; [7]): 0.06 mg/L | MICs combi / in combination (A. baumannii ACC00535): 0.5 mg/L | MIC (A. baumannii IHMA867231; [8]): > 128 µg/mL | MIC (A. baumannii IHMA867231; [3]): > 128 µg/mL | MIC (A. baumannii IHMA867231; [4]): > 32 µg/mL | MICs combi / in combination (A. baumannii IHMA867231; strain IHMA867231, rifabutin/SPR741 in combination): >32 mg/L | MICs combi (A. baumannii IHMA867231; strain IHMA867231, rifabutin/cefiderocol in combination): 128 mg/L | MICs combi (A. baumannii IHMA867231; strain IHMA867231, rifabutin/colistin in combination, CA-MHB): 2 mg/L | MICs alone (A. baumannii UNT239-1; [3]): 4 mg/L | MICs alone (A. baumannii UNT239-1; [4]): 4 mg/L | MICs combi / in combination (A. baumannii UNT239-1; [5]): 0.25 mg/L | MICs combi (A. baumannii UNT239-1; [9]): 1 mg/L | MICs combi (A. baumannii UNT239-1; [7]): 1 mg/L | MICs alone [2, 3]: 4 mg/L | MICs alone [2, 4]: 4 mg/L | MICs combi / in combination [2, 5]: 0.06 mg/L | MICs combi [2, 9]: 1 mg/L | MICs combi [2, 7]: 0.016 mg/L

From patent publication US11766425B2, “Antibiotic combination therapies” (BIOVERSYS AG, priority 2019, dated 2023)
